{"source": "patent US20170233346A1", "about": "“CRYSTALLINE ANTI-TRICHOPHYTON AGENTS AND PREPARATION PROCESS THEREOF” (MEIJI SEIKA PHARMA CO., LTD., priority 2014, published 2017)", "experiment": "Crystal form stability test (preservation, then powder X-ray diffraction and content)", "format": "physicochemical", "protocol": "Using high-speed imaging plate X-ray diffraction system (R-AXIS VII) manufactured by Rigaku Corporation, X-ray diffraction data of the crystals of the compound of the formula (1) were measured at −180° C. with a CuK α radiation (50 kV, 90 mA, λ=1.5418 Å). A sample was filled in a glass capillary having an inner diameter of 0.7 mm. The diffraction images were collected under the conditions a camera length of 300 mm, an oscillation angle of 40°, and an exposure time of 45 minutes. A contour integration treatment of the diffraction image was carried out by an R-AXIS display software available from Rigaku Corporation (integration range: 45 to 135°). The maximum value of the obtained integrated intensity was made 100, relative intensities of the respective integral intensities were calculated, and plotting them based on the diffraction angle 20 to prepare a diffraction pattern. With regard to the crystals of the compounds of the formula (1), these were preserved under the following mentioned temperature and humidity conditions, and then powder X-ray diffractions were measured. […] Term: 12 months Preservation condition: 25±2° C./[…] Packaging form: Polyethylene double bag/fiber drum Term: 6 months Preservation condition: 40±2° C./75±5% RH* *: RH: relative humidity Packaging form: Polyethylene double bag/fiber drum", "key": {"[1]": {"conditions": "Test 1, 25° C./60% RH, at starting"}, "[2]": {"conditions": "Test 1, 25° C./60% RH, preservation period 3 months"}, "[3]": {"conditions": "Test 1, 25° C./60% RH, preservation period 6 months"}, "[4]": {"conditions": "Test 1, 25° C./60% RH, preservation period 9 months"}, "[5]": {"conditions": "Test 1, 25° C./60% RH, preservation period 12 months"}, "[6]": {"conditions": "Test 2, 40° C./75% RH, preservation period 1 month"}, "[7]": {"conditions": "Test 2, 40° C./75% RH, preservation period 3 months"}, "[8]": {"conditions": "Test 2, 40° C./75% RH, preservation period 6 months"}}, "data": [{"compound": "Cc1ccc(-n2nc(C)cc2C)c(O)c1", "note": "[formula (1), 2-(3,5-dimethyl-1H-pyrazol-1-yl)-5-methylphenol]", "values": [{"measurement": "Content (%)", "setting": "[1]", "result": "(99.7%)*"}, {"measurement": "Crystal form (powder X-ray diffraction)", "setting": "[1]", "result": "Form A"}, {"measurement": "Content (%)", "setting": "[2]", "result": "(99.9%)*"}, {"measurement": "Crystal form (powder X-ray diffraction)", "setting": "[2]", "result": "Form A"}, {"measurement": "Content (%)", "setting": "[3]", "result": "(98.9%)*"}, {"measurement": "Crystal form (powder X-ray diffraction)", "setting": "[3]", "result": "Form A"}, {"measurement": "Content (%)", "setting": "[4]", "result": "(99.9%)*"}, {"measurement": "Crystal form (powder X-ray diffraction)", "setting": "[4]", "result": "Form A"}, {"measurement": "Content (%)", "setting": "[5]", "result": "(99.0%)*"}, {"measurement": "Crystal form (powder X-ray diffraction)", "setting": "[5]", "result": "Form A"}, {"measurement": "Change in crystal form after preservation", "setting": "Test 1 and Test 2, either of the measurement times", "result": "no change in crystal form was observed"}, {"measurement": "Content (%)", "setting": "[6]", "result": "(100.3%)*"}, {"measurement": "Crystal form (powder X-ray diffraction)", "setting": "[6]", "result": "Form A"}, {"measurement": "Content (%)", "setting": "[7]", "result": "(100.6%)*"}, {"measurement": "Crystal form (powder X-ray diffraction)", "setting": "[7]", "result": "Form A"}, {"measurement": "Content (%)", "setting": "[8]", "result": "(100.4%)*"}, {"measurement": "Crystal form (powder X-ray diffraction)", "setting": "[8]", "result": "Form A"}, {"measurement": "Period over which Form A crystals were extremely stable and high purity", "setting": "even under the accelerated conditions", "result": "≥ 6", "unit": "months"}]}]}
